Literature values as cited in patent US20030198619A1, “Formulation and dosage form for increasing oral bioavailability of hydrophilic macromolecules” (priority 2001, published 2003).
Like-named read-outs stand apart in the source and are kept apart here.

Assays:
[1] = in vivo

Molecule	oral bioavailability [1]	elimination half-life in urine (after oral administration)	oral bioavailability (in humans)	elimination half-life (mean value following IV injection)
NC(=O)CC[C@@H]1NC(=O)[C@H](Cc2ccccc2)NC(=O)[C@H](Cc2ccc(O)cc2)NC(=O)CCSSC[C@@H](C(=O)N2CCC[C@H]2C(=O)N[C@H](CCCN=C(N)N)C(=O)NCC(N)=O)NC(=O)[C@H](CC(N)=O)NC1=O [dDAVP, Desmopressin]	about 0.15%	–	–	–
pentosan polysulfate sodium [PPS]	–	4.8 h	approximately 3%	24 h
